From US8630703B2, “Treatment utilizing hydrophobic weak bases chemotherapeutic agents and illumination” (Technion Research & Development Foundation Limited, priority 2011, dated 2014)
Where two headings read alike, the source gives them in different places.

Assays:
[1] = system: SW1573 cells; experiment: XTT cytotoxicity assay with and without illumination
Protocol: (§1) Parental cells and their MDR (multi-drug resistant) sub-lines were seeded in 96-well plates (2×10^4 cells/well in 90 μl growth medium/well). […] Following incubation for 2 hours, the drug-containing medium was replaced by drug-free medium. The cells were then placed on an illuminator plate (Model 460, thin line series, S&S X-Ray Products Inc., Brooklyn, N.Y.) for 1 hour, thereby achieving a light dose of 5 J/cm^2 white light. After illumination, plates were further incubated for an additional 24 hours.
(§2) Cell viability was determined using an XTT (2,3-bis-(2-methoxy-4-nitro-5-sulfophenyl)-2H-tetrazolium-5-carboxanilide) Cell Proliferation Kit (Biological Industries). […] Results are presented as mean values of at least three independent experiments.

[2] = system: human umbilical vein endothelial cells (HUVEC); experiment: Fluorescence microscopy of endothelial cells; type: cell-based; conditions: 1 μM
Protocol: Human umbilical vein endothelial cells (HUVEC) were isolated by perfusion of umbilical veins (Department of Obstetrics and Gynaecology, VU University Medical Center) with trypsin. Cells were routinely cultured in RPMI-1640 medium (Life Technologies, Breda, The Netherlands) supplemented with 10% heat-inactivated human serum, 10% heat-inactivated FCS, 2 mM L-glutamine (Life Technologies, Netherlands), […] streptomycin and 50 U/ml penicillin (ICN Biomedicals) in a 0.2% gelatin coated 75 cm^2 tissue culture flask at 37° C. in an atmosphere with 5% CO2. HUVEC used for experiments were cultured without addition of extra growth factors and used for experiments between passage 2 and 4.
Freshly-isolated human umbilical vein endothelial cells (HUVEC), RF24 immortalized HUVEC cells, and human dermis derived endothelial cells (HMEC) were obtained and grown in vitro as described in the Materials and Methods section hereinabove. The cells were then seeded at 10^4 cells/well in a 24-well tissue culture plate. Twenty four hours after seeding, the cells were incubated for 1 hour with 10 or 1 μM of either C-1375, C-1379 or sunitinib. After this incubation, the cells in the 24-well plates were evaluated by fluorescence microscopy. […]

[3] = system: SW1573/2R160 cells; experiment: XTT cytotoxicity assay with and without illumination
Protocol: Cells were grown in drug-free conditions for one week before any analysis.
as §1, §2

[4] = system: MDR SW/2R160 and 2008/MRP1 cells; experiment: XTT cytotoxicity, result stated jointly for MDR cells; type: cell-based
Protocol: as §1
(§3) Cell viability was determined using an XTT (2,3-bis-(2-methoxy-4-nitro-5-sulfophenyl)-2H-tetrazolium-5-carboxanilide) Cell Proliferation Kit (Biological Industries). The drug concentrations required to inhibit cell growth by 50% (i.e., IC50 values) were determined from the cell survival curves in the absence and in the presence of illumination. Results are presented as mean values of at least three independent experiments.

[5] = system: A549/K1.5 cells; experiment: XTT cytotoxicity assay with and without illumination; type: cell-based, Human; conditions: A549/K1.5
Protocol: Human non-small cell lung cancer A549 cells and their ABCG2-overexpressing MDR (multi-drug resistant) A549/K1.5 sub-line; ovarian carcinoma cell line 2008 and its stable MRP1-transfectant 2008/MRP1; and human non-small lung cancer cell line SW1573 and its ABCB1-overexpressing subline SW1573/2R160) were maintained in RPMI-1640 medium supplemented with 10% fetal bovine serum, 2 mM glutamine, 100 μg/ml penicillin and streptomycin (Biological Industries, Beth-Haemek, Israel) in a humid atmosphere containing 5% CO2 at 37° C.
as §1, §3

[6] = system: chicken chorioallantoic membrane (CAM) vasculature; experiment: Chorioallantoic membrane (CAM) model of photodynamic therapy; type: in vivo; conditions: 100 μg/embryo i.v.; 420 nm, 20 J/cm^2, 1 minute after injection; 24 hours after treatment
Protocol: Fertilized chicken eggs (Animalco AG) were labeled and transferred into a hatching incubator with a relative air humidity of 65% and a temperature of 37° C. The incubator was equipped with an automatic fan (Savimat). On embryonic development day (EDD) 3, a hole of approximately 3 mm in diameter was opened in the eggshell above the air pouch of the egg and covered with Parafilm® wrapping film (Pechiney) to prevent dehydration and possible infections. The eggs were then returned to the incubator in a static position until use. On EDD 11, the hole in the shell was extended to a diameter of approximately 3 cm in order to provide better access to the chorioallantoic membrane (CAM) during experiments.
Eggs were placed under an Eclipse 600 FN epi-fluorescence microscope equipped with a Plan Apo 4/0.2, working distance 20 objective (Nikon). Microscopic observation and illumination of a region of the CAM was performed as described previously [Lim et al., Photochem Photobiol 2010, 86:397-402; Lim et al., J Med Chem 2010, 53:2865-2874; Nowak-Sliwinska et al., Angiogenesis 2010, 13:281-292]. Illumination was provided by a 100 W high pressure Hg-arc lamp. Light doses were adjusted with neutral density filters and measured with a calibrated Field-Master GS power meter (Coherent Inc.). Fluorescence images were acquired with an F-view II 12-bit monochrome Peltier-cooled digital CCD camera driven with analySIS DOCU software (Soft Imaging System GmbH).
For excitation and detection of imidazoacridinones (IAs) or sunitinib, the microscope was equipped with a filter set (Nikon) characterized by excitation wavelengths of 420±20 nm and emission wavelengths of >470 nm,
After the treatment the eggs were numbered, covered and returned to the incubator. Each treatment group included 5 eggs.
Chorioallantoic membranes (CAMs) were intravenously injecting chorioallantoic membranes with 20 μl of a solution of FITC-dextran (20 kDa, 25 mg/ml). Fluorescence angiography was then performed using light from an Hg-arc lamp and light filters (Nikon) which provided excitation wavelengths of 470±20 nm and emission wavelengths of >520 nm for observing the fluorescence. In order to increase the quality of the recorded angiographs, a light absorber, in the form of India ink, was injected (30 μl) into the extra-embryonic cavity. The purpose of this second injection was to decrease the influence of the CAM auto-fluorescence background, which changes rapidly with time due to the embryo's movement. The India ink was filtered shortly before injection, using a sterile cellulose acetate membrane with 0.2 μm pores (Renner GmbH).
Photodynamic therapy (PDT) was performed at embryo development day (EDD) 11, at which stage the CAM is fully developed and contains a vessel network with a regular capillary plexus. The imidazoacridinones were intravenously injected into the main vessel of the CAM through a 33-gauge needle fitted to a 100 μl syringe (Hamilton), at a concentration of 1 mg/ml and a volume of 100 μl, which corresponds to a dose of 100 μg, or approximately 10 mg/kg embryo body weight.
One minute after injection, a region of the CAM which contained vessels of diameters in a range of 5 to 70 μm was illuminated (420±20 nm) at a light dose of 20 J/cm^2 and an irradiance of […]. […]
The illuminated area was 0.02 cm^2, as delimited by an optical diaphragm. The fluorescence of sunitinib was visible in the vasculature of the CAMs prior to PDT.

[7] = system: 2008/MRP1 cells; experiment: XTT cytotoxicity assay with and without illumination
Protocol: as §1, §2

[8] = system: human dermis derived endothelial cells (HMEC); experiment: Fluorescence microscopy of endothelial cells; type: cell-based; conditions: 1 μM, blue light (420 nm)
Protocol: Endothelial cell lines RF24 and HMEC, were provided by Dr. H. Pannekoek (CLB, Amsterdam, Netherlands) and Dr. D van der Schaft (Maastricht University), respectively.
Freshly-isolated human umbilical vein endothelial cells (HUVEC), RF24 immortalized HUVEC cells, and human dermis derived endothelial cells (HMEC) were obtained and grown in vitro as described in the Materials and Methods section hereinabove. The cells were then seeded at 10^4 cells/well in a 24-well tissue culture plate. Twenty four hours after seeding, the cells were incubated for 1 hour with 10 or 1 μM of either C-1375, C-1379 or sunitinib. After this incubation, the cells in the 24-well plates were evaluated by fluorescence microscopy. For excitation and detection of imidazoacridinones (IAs) or sunitinib, the microscope was equipped with a filter set (Nikon) characterized by excitation wavelengths of 420±20 nm and emission wavelengths of >470 nm.

[9] = Absorption, emission and excitation spectra; type: physicochemical; conditions: aqueous 0.9% NaCl
Protocol: Stock solutions containing sunitinib or the imidazoacridinones (IAs) C-1375 and C-1379 in 100% dimethyl sulfoxide were diluted with aqueous 0.9% NaCl solution under continuous stirring. Absorption spectra were recorded with a two-beam Cary 500 UV-VIS-NIR spectrophotometer (Varian) in 1 cm long Suprasil® quartz cuvettes (Hellma), at an average scan speed of 600 nm/minute, at 20° C. The steady state emission and excitation spectra were recorded with an LS 50B luminescence spectrometer (Perkin-Elmer).

[10] = system: A549 cells; experiment: XTT cytotoxicity assay with and without illumination
Protocol: as §1, §2

[11] = system: 2008 cells; experiment: as above
Protocol: as §1, §2

## COc1ccc2c(c1)c(=O)c1c(NCCCN(C)C)ccc3nc(C)n2c31 [C-1375]
[1]; control vs illumination
  Fold sensitization: 24
[1]; illumination
  C-1375 LD50 Illumination: 233 ± 5 nM
  Survival at 1000 nM Illumination: 11 ± 2%
[1]; no illumination
  C-1375 LD50 Control: 5.535 ± 0.596 µM
  Survival at 1000 nM Control: 68 ± 6%
[2]; approximately 2 minutes of illumination
  photodestruction of lysosomes: most of the lysosomes had disappeared
[2]; illumination 1 minute (420 nm)
  photodestruction of lysosomes: many lysosomes were destroyed
[3]; control vs illumination
  Fold sensitization: 13
[3]; illumination
  C-1375 LD50 Illumination: 330 ± 56 nM
  Survival at 1000 nM Illumination: 24 ± 4%
[3]; no illumination
  C-1375 LD50 Control: 4.384 ± 0.125 µM
  Survival at 1000 nM Control: 74 ± 3%
[4]; illumination, read-out: IC50 with illumination
  IC50: 90 to 330 nM
[4]; no illumination, read-out: IC50 in the absence of illumination
  IC50: 3300 to 5500 nM
[5]; control vs illumination
  Fold sensitization: 10
[5]; no illumination
  LD50 Control: 5.264 ± 0.877 µM
  Survival at 3000 nM Control: 70 ± 5%
[5]; white light 1 hour (5 J/cm^2)
  LD50 Illumination: 541 ± 56 nM
[5]; white light illumination
  Survival at 3000 nM Illumination: 3 ± 0.6%
[6]
  vascular effect in illuminated area: vaso-occlusion within the illuminated area
[7]; control vs illumination
  Fold sensitization: 51
[7]; illumination
  C-1375 LD50 Illumination: 101 ± 0.1 nM
  Survival at 1000 nM Illumination: 13 ± 3%
[7]; no illumination
  C-1375 LD50 Control: 5.115 ± 0.889 µM
  Survival at 1000 nM Control: 80 ± 2%
[8]
  photodestruction of lysosomes: lysosome destruction and accumulation of C-1375 in the nuclei also occurred
[9]
  Peak absorption: 444 nm
  Peak emission: 553 nm
  Peak excitation: 449 nm
[10]; control vs illumination
  Fold sensitization: 14
[10]; no illumination
  Survival at 3000 nM Control: 50 ± 3%
[10]; no illumination, 2 h drug, XTT 24 h later
  LD50 Control: 3.054 ± 0.26 µM
[10]; white light 1 hour (5 J/cm^2)
  LD50 Illumination: 212 ± 29 nM
[10]; white light illumination
  Survival at 3000 nM Illumination: 3 ± 2%
[11]; control vs illumination
  Fold sensitization: 36
[11]; illumination
  C-1375 LD50 Illumination: 90 ± 9 nM
  Survival at 1000 nM Illumination: 11 ± 4%
[11]; no illumination
  C-1375 LD50 Control: 3.28 ± 0.345 µM
  Survival at 1000 nM Control: 72 ± 0.8%
